Measured values taken from patent publication US6653300B2, “Pyrazole compounds useful as protein kinase inhibitors” (Vertex Pharmaceuticals Incorporated, priority 2000, dated 2003).
Where two headings read alike, the source gives them in different places.

Tests used:
GSK-3β (AA 1-420) = molecular target: T1, GSK-3β (AA 1-420) (Homo sapiens, UniProt P49841); assay: Ki determination for the inhibition of GSK-3 (coupled enzyme system); format: biochemical; conditions: 20 μM ATP, 20 nM GSK-3β, 30° C.
T1 construct: GSK-3β (AA 1-420)
T1 sequence (P49841 whole entry, the tested form may be a part): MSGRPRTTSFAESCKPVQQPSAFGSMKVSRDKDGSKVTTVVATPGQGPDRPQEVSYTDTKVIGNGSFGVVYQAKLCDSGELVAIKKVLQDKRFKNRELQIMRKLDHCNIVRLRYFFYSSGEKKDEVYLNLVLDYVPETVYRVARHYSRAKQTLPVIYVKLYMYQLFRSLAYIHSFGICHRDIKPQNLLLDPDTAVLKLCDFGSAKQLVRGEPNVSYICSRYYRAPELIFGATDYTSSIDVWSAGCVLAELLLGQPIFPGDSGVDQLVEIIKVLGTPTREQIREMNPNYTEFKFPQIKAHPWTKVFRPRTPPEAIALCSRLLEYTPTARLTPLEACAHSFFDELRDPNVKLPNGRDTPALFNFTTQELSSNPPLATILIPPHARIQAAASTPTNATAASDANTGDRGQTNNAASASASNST
Outline: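 GSK-3β (AA 1-420, 20 nM) was run in a pyruvate kinase/LDH-coupled NADH assay in 100 mM HEPES pH 7.5, 10 mM MgCl2, 25 mM NaCl, 1 mM DTT, 1.5% DMSO, with 300 μM phosphopeptide substrate. Compound (0.002–30 μM) was preincubated 10 min at 30° C, then 20 μM ATP was added.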

human Src kinase = molecular target: T2, human Src kinase (Homo sapiens, UniProt P12931); assay: SRC inhibition assay (radioactivity-based or spectrophotometric assay); format: biochemical; conditions: recombinant human Src kinase, assay A or B
T2 construct: full length recombinant human Src kinase (from Upstate Biotechnology, cat. no. 14-117); purchased Upstate Biotechnology 14-117; host or cells: baculo viral cells
T2 sequence (P12931 whole entry): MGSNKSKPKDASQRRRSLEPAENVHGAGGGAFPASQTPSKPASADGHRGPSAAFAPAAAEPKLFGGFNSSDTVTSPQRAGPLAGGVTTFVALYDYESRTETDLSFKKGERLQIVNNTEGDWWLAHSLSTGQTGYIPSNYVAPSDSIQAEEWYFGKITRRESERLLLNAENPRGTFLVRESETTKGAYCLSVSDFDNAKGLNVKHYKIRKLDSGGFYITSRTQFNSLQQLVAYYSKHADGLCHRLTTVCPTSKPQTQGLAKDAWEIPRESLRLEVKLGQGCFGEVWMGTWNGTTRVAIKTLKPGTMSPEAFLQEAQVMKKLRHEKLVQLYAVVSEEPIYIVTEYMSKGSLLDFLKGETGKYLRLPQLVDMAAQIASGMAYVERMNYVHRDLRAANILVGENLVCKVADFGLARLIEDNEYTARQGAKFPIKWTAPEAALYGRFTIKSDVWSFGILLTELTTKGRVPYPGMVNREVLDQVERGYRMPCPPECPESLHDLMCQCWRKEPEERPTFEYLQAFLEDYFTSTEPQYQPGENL
Experimental: The compounds were evaluated as inhibitors of human Src kinase using either a radioactivity-based assay or spectrophotometric assay. The compounds were assayed as inhibitors of full length recombinant human Src kinase (from Upstate Biotechnology, cat. no. 14-117) expressed and purified from baculo viral cells. […] P-0275). […] In a typical assay, all the reaction components with the exception of ATP were pre-mixed and aliquoted into assay plate wells. […] The assay plate was incubated at 30° C. for 10 min before initiating the reaction with ^33P-ATP. After 20 min of reaction, the reactions were quenched with 150 μl of 10% trichloroacetic acid (TCA) containing 20 mM Na3PO4. The quenched samples were then transferred to a 96-well filter plate (Whatman, UNI-Filter GF/F Glass Fiber Filter, cat no. 7700-3310) installed on a filter plate vacuum manifold. Filter plates were washed four times with 10% TCA containing 20 mM Na3PO4 and then 4 times with methanol. 200 μl of scintillation fluid was then added to each well. The plates were sealed and the amount of radioactivity associated with the filters was quantified on a TopCount scintillation counter. The radioactivity incorporated was plotted as a function of the inhibitor concentration. The data was fitted to a competitive inhibition kinetics model to get the Ki for the compound. The ADP produced from ATP by the human recombinant Src kinase-catalyzed phosphorylation of poly Glu-Tyr substrate was quanitified using a coupled enzyme assay (Fox et al (1998) Protein Sci 7, 2249). In this assay one molecule of NADH is oxidised to NAD for every molecule of ADP produced in the kinase reaction. The disappearance of NADH can be conveniently followed at 340 nm. […] In a typical assay, all the reaction components with the exception of ATP were pre-mixed and aliquoted into assay plate wells. […] The absorbance change at 340 nm with time, the rate of the reaction, was monitored on a molecular devices plate reader. The data of rate as a function of the inhibitor concentration was fitted to competitive inhibition kinetics model to get the Ki for the compound.

Aurora-2 = molecular target: T3, Aurora-2 (Homo sapiens, UniProt O14965); assay: Ki determination for the inhibition of Aurora-2 (coupled enzyme assay); format: biochemical; conditions: 70 nM Aurora-2, 30° C.
T3 sequence (O14965 1-403): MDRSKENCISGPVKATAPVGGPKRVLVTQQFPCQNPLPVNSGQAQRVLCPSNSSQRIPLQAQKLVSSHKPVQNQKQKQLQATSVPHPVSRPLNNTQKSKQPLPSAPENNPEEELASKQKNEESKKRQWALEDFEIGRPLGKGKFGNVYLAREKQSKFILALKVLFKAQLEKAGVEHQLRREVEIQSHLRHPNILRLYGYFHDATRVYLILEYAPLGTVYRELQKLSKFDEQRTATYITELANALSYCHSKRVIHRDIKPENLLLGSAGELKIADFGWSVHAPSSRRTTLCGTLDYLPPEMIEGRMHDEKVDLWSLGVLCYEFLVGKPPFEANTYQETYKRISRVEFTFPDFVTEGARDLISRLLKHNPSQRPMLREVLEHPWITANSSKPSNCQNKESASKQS
Outline: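 Ki came from reaction rates plotted against inhibitor concentration, with rates taken as A340 decrease over 5 min at 30° C. Enzyme (70 nM final) was added after 10 min compound preincubation; stock buffer held […], 800 μM LRRASLG, PK/LDH coupling, pH 7.5.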

A Ki (GSK-3β (AA 1-420)) of 100 to 1000 nM, a Ki (human Src kinase; read-out: Ki value on SRC) of less than 100 nM and a melting point of 233 to 234 °C were found for `c1ccc(-c2cc(Nc3cc(C4CC4)[nH]n3)nc(Sc3ccc4ccccc4c3)n2)cc1` [IIIa-1, (5-Cyclopropyl-2H-pyrazol-3-yl)-[2-(naphtalen-2-ylsulfanyl)-6-phenylpyrimidin-4-yl]-amine] in this work.

A Ki (human Src kinase; read-out: Ki value for SRC) of 1000 to 6000 nM and a melting point of 201 to 202 °C were found for `Cc1cc(Nc2cc(-c3ccccc3)nc(Sc3ccc(NC(=O)C(C)C)cc3)n2)n[nH]1` [IIIa-13, [2-(4-Isobutyrylylamino-phenylsulfanyl)-6-phenylpyrimidin-4-yl]-(5-methyl-2H-pyrazol-3-yl)-amine] in this work.

A Ki (GSK-3β (AA 1-420)) of 1000 to 7000 nM, a Ki (human Src kinase; read-out: Ki value for SRC) of 1000 to 6000 nM and a melting point of 276 to 277 °C were found for `CC(=O)Nc1ccc(Sc2nc(Nc3cc(C)[nH]n3)c(C)c(-c3ccccc3)n2)cc1` [IIIa-21, [2-(4-Acetamido-phenyl-sulfanyl)-5-methyl-6-phenyl-pyrimidin-4-yl]-(5-methyl-2H-pyrazol-3-yl)-amine] in this work.

A Ki (human Src kinase; read-out: Ki value for SRC) of 1000 to 6000 nM and a melting point of 213 to 215 °C were found for `Cc1cc(Nc2cc(-c3ccccc3)nc(Sc3ccc(NC(=O)CN(C)C)cc3)n2)n[nH]1` [IIIa-25, {2-[4-(2-Dimethylamino-acetylamino)-phenylsulfanyl]-6-phenyl-pyrimidin-4-yl}-(5-methyl-2H-pyrazol-3-yl)-amine] in this work.

A Ki (GSK-3β (AA 1-420)) of 100 to 1000 nM, a Ki (human Src kinase; read-out: Ki value for SRC) of 1000 to 6000 nM and a melting point of 234 to 235 °C were found for `Cc1cc(Nc2cc(N3CCCCC3)nc(SCc3cccc(Cl)c3)n2)n[nH]1` [IIIa-34, [2-(3-Chloro-benzylsulfanyl)-6-(piperidin-1-yl)-pyrimidin-4-yl]-(5-methyl-2H-pyrazol-3-yl)-amine] in this work.

A Ki (GSK-3β (AA 1-420)) of 1000 to 7000 nM, a Ki (human Src kinase; read-out: Ki value for SRC) of 1000 to 6000 nM and a melting point of 193 to 195 °C were found for `COCCNc1cc(Nc2cc(C)[nH]n2)nc(SCc2ccc(S(=O)(=O)N3CCOCC3)cc2)n1` [IIIa-36, {6-(2-Methoxy-ethylamino)-2-[4-(morpholinesulfonyl)-benzylsulfanyl]-pyrimidin-4-yl}-(5-methyl-2H-pyrazol-3-yl)-amine] in this work.

A Ki (GSK-3β (AA 1-420)) of 100 to 1000 nM, a Ki (human Src kinase; read-out: Ki value for SRC) of 1000 to 6000 nM and a melting point of 206 to 207 °C were found for `Cc1cc(Nc2cc(N3CCN(C)CC3)nc(SCc3ccc(S(=O)(=O)N4CCOCC4)cc3)n2)n[nH]1` [IIIa-37, {6-(4-methylpiperazin-1-yl)-2-[4-(morpholinesulfonyl)-benzylsulfanyl]-pyrimidin-4-yl}-(5-methyl-2H-pyrazol-3-yl)-amine] in this work.

A Ki (human Src kinase; read-out: Ki value for SRC) of 1000 to 6000 nM was found for `CC(=O)Nc1ccc(Sc2nc(Nc3cc(C)n[nH]3)cc(N3CCOCC3)n2)cc1` [IIIa-44, [2-(4-Acetamidophenylsulfanyl)-6-(morpholin-4-yl)-pyrimidin-4-yl]-(5-methyl-2H-pyrazol-3-yl)-amine] in this work.

A Ki (GSK-3β (AA 1-420)) of 100 to 1000 nM, a Ki (Aurora-2) of 100 to 1000 nM and a Ki (human Src kinase; read-out: Ki value for SRC) of 1000 to 6000 nM were found for `Cc1cc(Nc2nc(Sc3ccccc3N)nc3ccccc23)n[nH]1` [IIa-20, [2-(2-Aminophenylsulfanyl)-quinazolin-4-yl]-(5-methyl-2H-pyrazol-3-yl)-amine] in this work.

A Ki (GSK-3β (AA 1-420)) of 100 to 1000 nM, a Ki (Aurora-2) of less than 100 nM and a melting point of 233 to 234 °C were found for `c1ccc2c(c1)CC(Nc1nc(Nc3cc(C4CC4)[nH]n3)c3ccccc3n1)C2` [IIc-49, (5-Cyclopropyl-2H-pyrazol-3-yl)-[2-(indan-2-ylamino)-quinazolin-4-yl]-amine] in this work.

A Ki (GSK-3β (AA 1-420)) of 100 to 1000 nM, a Ki (Aurora-2) of less than 100 nM and a melting point of 240 to 242 °C were found for `Cc1cccc(Nc2nc(Nc3cc(C)[nH]n3)c3ccccc3n2)c1` [IIc-50, [2-(3-Methylphenylamino)-quinazolin-4-yl]-(5-methyl-2H-pyrazol-3-yl)-amine] in this work.

A Ki (GSK-3β (AA 1-420)) of 100 to 1000 nM, a Ki (Aurora-2) of less than 100 nM and a melting point of 275 to 276 °C were found for `c1ccc2c(Nc3cc(C4CC4)[nH]n3)nc(Nc3ccc(N4CCOCC4)cc3)nc2c1` [IIc-52, (5-Cyclopropyl-2H-pyrazol-3-yl)-{2-[4-(morpholin-1-yl)phenylamino]-quinazolin-4-yl}-amine] in this work.
